Molecules are shown by their SMILES.

The test concerns the target T1, Toll-like receptor 7 (Homo sapiens, UniProt Q9NYK1).
T1 sequence (Q9NYK1 whole entry): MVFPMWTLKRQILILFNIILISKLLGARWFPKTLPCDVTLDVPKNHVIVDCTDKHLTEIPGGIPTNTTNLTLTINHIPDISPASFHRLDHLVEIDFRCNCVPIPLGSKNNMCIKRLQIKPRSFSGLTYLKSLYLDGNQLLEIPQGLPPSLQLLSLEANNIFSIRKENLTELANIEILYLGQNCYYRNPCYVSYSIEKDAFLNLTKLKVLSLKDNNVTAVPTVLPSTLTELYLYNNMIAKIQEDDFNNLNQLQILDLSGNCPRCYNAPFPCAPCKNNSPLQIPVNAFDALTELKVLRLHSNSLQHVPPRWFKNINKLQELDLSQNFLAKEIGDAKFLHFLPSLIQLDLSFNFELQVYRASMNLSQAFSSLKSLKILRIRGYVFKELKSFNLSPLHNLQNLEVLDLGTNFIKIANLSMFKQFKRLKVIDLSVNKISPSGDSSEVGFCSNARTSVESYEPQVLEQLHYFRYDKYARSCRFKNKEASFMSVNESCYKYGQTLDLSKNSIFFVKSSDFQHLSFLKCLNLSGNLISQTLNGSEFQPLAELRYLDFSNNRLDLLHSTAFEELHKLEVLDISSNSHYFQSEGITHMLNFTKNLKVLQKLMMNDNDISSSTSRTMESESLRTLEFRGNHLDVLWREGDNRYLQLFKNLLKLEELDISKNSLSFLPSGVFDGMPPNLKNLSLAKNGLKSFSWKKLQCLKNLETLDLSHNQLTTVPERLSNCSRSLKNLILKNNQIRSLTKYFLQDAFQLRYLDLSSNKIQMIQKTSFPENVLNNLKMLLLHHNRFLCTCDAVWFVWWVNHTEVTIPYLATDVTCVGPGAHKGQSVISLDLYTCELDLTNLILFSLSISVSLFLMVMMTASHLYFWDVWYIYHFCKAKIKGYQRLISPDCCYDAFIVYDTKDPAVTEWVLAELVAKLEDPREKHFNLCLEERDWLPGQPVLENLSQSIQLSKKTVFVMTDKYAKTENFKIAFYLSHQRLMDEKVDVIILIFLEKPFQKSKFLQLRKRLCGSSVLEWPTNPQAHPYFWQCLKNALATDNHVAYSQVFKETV
Kind of test: HEK293-Blue-hTLR-7 Cells Ass: A stable HEK293-Blue-hTLR-7 cell line was purchased from InvivoGen (Cat.#: hkb-htlr7, San Diego, Calif., USA). These cells were designed for studying the stimulation of human TLR7 by monitoring the activation of NF-κB. A SEAP (secreted embryonic alkaline phosphatase) reporter gene was placed under the control of the IFN-β[…] minimal promoter fused to five NF-κB and AP-1-binding sites. The SEAP was induced by activating NF-κB and AP-1 via stimulating HEK-Blue hTLR7 cells with TLR7 ligands. Therefore the reporter expression was regulated by the NF-κB promoter upon stimulation of human TLR7 for 20 hours. The cell culture supernatant SEAP reporter activity was determined using QUANTI-Blue kit (Cat.#: rep-qb1, Invivogen, San Diego, Calif., USA) at a wavelength of 640 nm, a detection medium that turns purple or blue in the presence of alkaline phosphatase.HEK293-Blue-hTLR7 cells were incubated at a density of 250,000 ~ 450,000 cells/mL in a volume of 180 μL in a 96-well plate in Dulbecco's Modified Eagle's medium (DMEM) containing 4.5 g/L glucose, 50 U/mL penicillin, 50 […], 100 […], 2 mM L-glutamine, 10% (v/v) heat-inactivated fetal bovine serum for 24 h. […].

By EC50 is commonly meant the concentration needed to bring the measured effect to its halfway point. With `CCC(O)[C@@H]1C[C@@H](OC(C)=O)[C@H](n2c(=O)sc3c(=O)[nH]c(N)nc32)O1` (single isomer, unassigned), the EC50 was 48 µM.

The record behind these values is ChEMBL document CHEMBL5725638, “3-substituted 5-amino-6H-thiazolo[4,5-d]pyrimidine-2,7-dione compounds for the treatment and prophylaxis of virus infection” (2018).
